The supplement of paper PMC4628005

Experiments:
Conditions in all cases: drug exposure time: 96 h
Bortezomib = compound: CC(C)C[C@H](NC(=O)[C@H](Cc1ccccc1)NC(=O)c1cnccn1)B(O)O [Bortezomib]
Procedure: (§1)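 Same SRB 96 h IC50 screen on breast cancer cell lines (RPMI 1640 + 10% FBS, collagen I-coated 96-well plates, triplicates, 12 dilutions), for drugs with a different dose range: Bortezomib up to 2e-5 M; Sirolimus and 17-AAG up to 2e-6 M. Sirolimus values at the 2e-6 M top dose are censored.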

Sirolimus = compound: CO[C@H]1C[C@@H]2CC[C@@H](C)[C@@](O)(O2)C(=O)C(=O)N2CCCC[C@H]2C(=O)O[C@H]([C@H](C)C[C@@H]2CC[C@@H](O)[C@H](OC)C2)CC(=O)[C@H](C)/C=C(\C)[C@@H](O)[C@@H](OC)C(=O)[C@H](C)C[C@H](C)/C=C/C=C/C=C/1C [Sirolimus]
Procedure: as §1

17-AAG = compound: C=CCNC1=C2C[C@@H](C)C[C@H](OC)[C@H](O)[C@@H](C)/C=C(\C)[C@H](OC(N)=O)[C@@H](OC)/C=C\C=C(/C)C(=O)NC(=CC1=O)C2=O [17-AAG]
Procedure: as §1

Nutlin-3 = compound: COc1ccc(C2=N[C@@H](c3ccc(Cl)cc3)[C@@H](c3ccc(Cl)cc3)N2C(=O)N2CCNC(=O)C2)c(OC(C)C)c1 [Nutlin-3]
Procedure: (§2)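 Breast cancer cell lines were grown in RPMI 1640 with 10% FBS on collagen I-coated 96-well plates and treated for 96 h (from 24 h after seeding) with 12 dilutions per drug, in triplicate. Growth was read by sulforhodamine B total-protein staining (absorbance 570 nm) relative to diluent control, and IC50 was calculated. The top dose was 1e-5 M for most drugs; Bortezomib went to 2e-5 M and Sirolimus and 17-AAG to 2e-6 M[…].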

Decitabine = compound: Nc1ncn([C@H]2C[C@H](O)[C@@H](CO)O2)c(=O)n1 [Decitabine]
Procedure: as §2

Methotrexate = compound: CN(Cc1cnc2nc(N)nc(N)c2n1)c1ccc(C(=O)N[C@@H](CCC(=O)O)C(=O)O)cc1 [Methotrexate]
Procedure: as §2

Docetaxel = compound: CC(=O)O[C@@]12CO[C@@H]1C[C@H](O)[C@@]1(C)C(=O)[C@H](O)C3=C(C)[C@@H](OC(=O)[C@H](O)[C@@H](NC(=O)OC(C)(C)C)c4ccccc4)C[C@@](O)([C@@H](OC(=O)c4ccccc4)[C@H]21)C3(C)C [Docetaxel]
Procedure: as §2

Quisinostat = compound: Cn1cc(CNCC2CCN(c3ncc(C(=O)NO)cn3)CC2)c2ccccc21 [Quisinostat]
Procedure: as §2

Sunitinib = compound: CCN(CC)CCNC(=O)c1c(C)[nH]c(/C=C2\C(=O)Nc3ccc(F)cc32)c1C [Sunitinib]
Procedure: as §2

5-Fluorouracil = compound: O=c1[nH]cc(F)c(=O)[nH]1 [5-Fluorouracil]
Procedure: as §2

Belinostat = compound: O=C(/C=C/c1cccc(S(=O)(=O)Nc2ccccc2)c1)NO [Belinostat]
Procedure: as §2

Vorinostat = compound: O=C(CCCCCCC(=O)Nc1ccccc1)NO [Vorinostat]
Procedure: as §2

Lapatinib = compound: CS(=O)(=O)CCNCc1ccc(-c2ccc3ncnc(Nc4ccc(OCc5cccc(F)c5)c(Cl)c4)c3c2)o1 [Lapatinib]
Procedure: as §2

Azacitidine = compound: Nc1ncn([C@@H]2O[C@H](CO)[C@@H](O)[C@H]2O)c(=O)n1 [Azacitidine]
Procedure: as §2

Dasatinib = compound: Cc1nc(Nc2ncc(C(=O)Nc3c(C)cccc3Cl)s2)cc(N2CCN(CCO)CC2)n1 [Dasatinib]
Procedure: as §2

Gefitinib = compound: COc1cc2ncnc(Nc3ccc(F)c(Cl)c3)c2cc1OCCCN1CCOCC1 [Gefitinib]
Procedure: as §2

Brivanib = compound: Cc1cc2c(F)c(Oc3ncnn4cc(OC[C@@H](C)O)c(C)c34)ccc2[nH]1 [Brivanib]
Procedure: as §2

Vandetanib = compound: COc1cc2/c(=N/c3ccc(Br)cc3F)nc[nH]c2cc1OCC1CCN(C)CC1 [Vandetanib]
Procedure: as §2

Tamoxifen = compound: CC/C(=C(\c1ccccc1)c1ccc(OCCN(C)C)cc1)c1ccccc1 [Tamoxifen]
Procedure: as §2

Serdemetan = compound: c1ccc2c(CCNc3ccc(Nc4ccncc4)cc3)c[nH]c2c1 [Serdemetan]
Procedure: as §2

Erlotinib = compound: C#Cc1cccc(Nc2ncnc3cc(OCCOC)c(OCCOC)cc23)c1 [Erlotinib]
Procedure: as §2

MI-219 = compound: CC(C)(C)C[C@H]1N[C@@H](C(=O)NCC[C@H](O)CO)[C@H](c2cccc(Cl)c2)[C@@]12C(=O)Nc1cc(Cl)c(F)cc12 [MI-219]
Procedure: as §2

Mitoxantrone = compound: O=C1c2c(O)ccc(O)c2C(=O)c2c(NCCNCCO)ccc(NCCNCCO)c21 [Mitoxantrone]
Procedure: as §2

Sorafenib = compound: CNC(=O)c1cc(Oc2ccc(NC(=O)Nc3ccc(Cl)c(C(F)(F)F)c3)cc2)ccn1 [Sorafenib]
Procedure: as §2

Panobinostat = compound: Cc1[nH]c2ccccc2c1CCNCc1ccc(/C=C/C(=O)NO)cc1 [Panobinostat]
Procedure: as §2

Paclitaxel = compound: CC(=O)O[C@H]1C(=O)[C@@]2(C)[C@H]([C@H](OC(=O)c3ccccc3)[C@]3(O)C[C@H](OC(=O)[C@H](O)[C@@H](NC(=O)c4ccccc4)c4ccccc4)C(C)=C1C3(C)C)[C@]1(OC(C)=O)CO[C@@H]1C[C@@H]2O [Paclitaxel]
Procedure: as §2

Test System | IC50 (SRB growth assay) (Bortezomib) | IC50 (SRB growth assay) (Sirolimus) | IC50 (SRB growth assay) (17-AAG) | IC50 (SRB growth assay) (Nutlin-3) | IC50 (SRB growth assay) (Decitabine) | IC50 (SRB growth assay) (Methotrexate) | IC50 (SRB growth assay) (Docetaxel) | IC50 (SRB growth assay) (Quisinostat) | IC50 (SRB growth assay) (Sunitinib) | IC50 (SRB growth assay) (5-Fluorouracil) | IC50 (SRB growth assay) (Belinostat) | IC50 (SRB growth assay) (Vorinostat) | IC50 (SRB growth assay) (Lapatinib) | IC50 (SRB growth assay) (Azacitidine) | IC50 (SRB growth assay) (Dasatinib) | IC50 (SRB growth assay) (Gefitinib) | IC50 (SRB growth assay) (Brivanib) | IC50 (SRB growth assay) (Vandetanib) | IC50 (SRB growth assay) (Tamoxifen) | IC50 (SRB growth assay) (Serdemetan) | IC50 (SRB growth assay) (Erlotinib) | IC50 (SRB growth assay) (MI-219) | IC50 (SRB growth assay) (Mitoxantrone) | IC50 (SRB growth assay) (Sorafenib) | IC50 (SRB growth assay) (Panobinostat) | IC50 (SRB growth assay) (Paclitaxel)
HCC 1937 | 5.14 nM | 5.98 nM | 26.7 nM | > 10000 nM | 1930 nM | 65.5 nM | 1.08 nM | 43.9 nM | 6000 nM | 5280 nM | 572 nM | 1760 nM | 1930 nM | > 10000 nM | 4730 nM | > 10000 nM | > 10000 nM | 4060 nM | 5720 nM | 1050 nM | > 10000 nM | > 10000 nM | 76.6 nM | 6230 nM | 42.1 nM | 4.02 nM
SUM 159 PT | 3.27 nM | 0.288 nM | 4.73 nM | > 10000 nM | 46.7 nM | 2.36 nM | 0.71 nM | 8.78 nM | 1960 nM | 1680 nM | 213 nM | 475 nM | 46.7 nM | > 10000 nM | 4060 nM | > 10000 nM | > 10000 nM | 5260 nM | 6360 nM | 547 nM | 5260 nM | > 10000 nM | 1.24 nM | 3730 nM | 8.19 nM | 2.95 nM
SUM 149 PT | 5.35 nM | 10.7 nM | 17.7 nM | > 10000 nM | 81 nM | 10.6 nM | 0.226 nM | 6.79 nM | 3430 nM | 7760 nM | 171 nM | 515 nM | 81 nM | > 10000 nM | 70.6 nM | 2860 nM | > 10000 nM | 877 nM | 5210 nM | 608 nM | 766 nM | > 10000 nM | 1 nM | 5590 nM | 8.96 nM | 1.31 nM
UACC 893 | 3.92 nM | 0.072 nM | 18.2 nM | > 10000 nM | > 10000 nM | 164 nM | 0.701 nM | 4.25 nM | 2300 nM | 8200 nM | 134 nM | 487 nM | > 10000 nM | > 10000 nM | 6910 nM | 1710 nM | > 10000 nM | 4360 nM | 5500 nM | 2870 nM | 1490 nM | > 10000 nM | 4.1 nM | 4460 nM | 5.26 nM | 1.95 nM
